System: cataract formation in galactocemic rats
Experiment: in vivo dose response by intubation (per oral) in galactocemic rats, cataract (vacuole) formation
Parameters: species or system Charles River CD (Sprague-Dawley derived) male rats
Procedure: B. In vivo dose response studies were conducted to test the in vivo activity of the following compounds by intubation (per oral) in galactocemic rats on a 30% galactose diet previously described:
Stock suspensions of the test compounds and all dilutions of the compound were formulated with 0.03% by weight Tween 80.
Healthy, Charles River CD (outbred albino, Sprague-Dawley derived) male rats, aged 20-30 days, without observable ocular defects and ranging in weight from 35-45 grams, were acclimated to experimental conditions (in quarantine) for two days prior to beginning the study.
Rats were individually assigned to one of twenty-three groups according to a random number schedule. Two rats, belonging to the same drug-diet treatment group, were housed per cage. Treatment and control groups consisted of six (6) rats each with no replacement in the event of death, and were designated as follows:
Lenses of all eyes were examined with a hand-held ophthalmoscope in the early stages of cataract development and a penlight for the stages, snowflake-like, snowflake, and nuclear cataract. Lens grading occurred every day for the first ten study days, and then every other day until study Day 14.
The relative potency determination was made at 7 drug levels over half log dose intervals. The response (percent cataracts formed and/or the time to cataract formation) was plotted against mg/kg and/or moles/kg.
The study was directed to the suppression and/or elimination of the initial stages of cataract development characterized by vacuoles or snowflake-likeopacities only. It was assumed therefore that suppression and/or elimination of vacuoles or lens opacification by the test drugs affects the transport, absorption and/or metabolism of galactose in such a manner as to prevent subsequent osmotic disturbances normally leading to tissue degeneration and advanced cataract. Advanced cataract defined as stages 2-4 of the Sipple classification was assumed to be of secondary importance to the etiology of cataract inhibition.
In the event where cataract stage other than vacuole formed, such as snowflake-like opacities, this cataract was counted similarly as vacuole in percent cataract formation.
This study yielded this expected effect in the control groups.
All animals were fed Purina Laboratory Chow and water, ad libitum, for the two day acclimation period. All drugs were dosed orally by intubation using an animal feeding needle (Popper and Sons), 18 or 20 gauge, attached to a 1 or 3 ml syringe. Once the dosing time schedule was established, the schedule was followed throughout the study to compensate for any diurnal variation.
The animals were kept on a twelve hour day/night cycle. The temperature and humidity were determined each day at the scheduled dosing time of 1:00 p.m.
The animals were weighed every other day and adjustments to dosage amounts to compensate for weight gain were made each day prior to the dose time. All food was routinely withheld from all animal groups for four hours (9:00 a.m.) prior to the drug dose and restored two hours (3:00 p.m.) post-dose. Otherwise sufficient amounts of chow or diet mixture were maintained in the food hopper to allow the animals to eat ad libitum. There were two days of drug dosage with the animals remaining on Purina Laboratory Chow (Days 1 and 2). The 30% galactose diet mixture was introduced to the animals two hours post-dose on Day 3 which constituted Day 1 of the study.
All eyes were examined with a hand-held ophthalmoscope and/or penlight at the times designated in the Experimental Design section.
It has been found in previous studies that dilation of the eye with a mydriactic (i.e. Mydriacyl) is not necessary for accurate grading, due to the semi-transparent nature of the rat iris. In the early stages (i.e., grades -, ±, and +) the lens was observed by reflecting the ophthalmoscope beam off the retina back through the lens and iris. Using this technique, vacuoles appear as dark, almost opaque patches. […]

SMILES: O=C1NC(=O)C2(N1)c1cc(F)ccc1-c1ccc(F)cc12 [M, Spiro-[2,7-difluorofluoren-9,4'-imidazolidine]-2',5'-dione]
- Percent of Rat Eyes With at Least Vacuoles Formed (0.126 mg/kg p.o., Day 0): 0%
- Percent of Rat Eyes With at Least Vacuoles Formed (0.126 mg/kg p.o., Day 1): 0%
- Percent of Rat Eyes With at Least Vacuoles Formed (0.126 mg/kg p.o., Day 2): 0%
- Percent of Rat Eyes With at Least Vacuoles Formed (0.126 mg/kg p.o., Day 3): 0%
- Percent of Rat Eyes With at Least Vacuoles Formed (0.126 mg/kg p.o., Day 4): 0%
- Percent of Rat Eyes With at Least Vacuoles Formed (0.126 mg/kg p.o., Day 5): 0%
- Percent of Rat Eyes With at Least Vacuoles Formed (0.126 mg/kg p.o., Day 6): 8%
- Percent of Rat Eyes With at Least Vacuoles Formed (0.126 mg/kg p.o., Day 7): 25%
- Percent of Rat Eyes With at Least Vacuoles Formed (0.126 mg/kg p.o., Day 8): 67%
- Percent of Rat Eyes With at Least Vacuoles Formed (0.126 mg/kg p.o., Day 9): 67%
- Percent of Rat Eyes With at Least Vacuoles Formed (0.126 mg/kg p.o., Day 10): 67%
- Percent of Rat Eyes With at Least Vacuoles Formed (0.126 mg/kg p.o., Day 12): 67%
- Percent of Rat Eyes With at Least Vacuoles Formed (0.126 mg/kg p.o., Day 14): 75%
- Percent of Rat Eyes With at Least Vacuoles Formed (0.4 mg/kg p.o., Day 0): 0%
- Percent of Rat Eyes With at Least Vacuoles Formed (0.4 mg/kg p.o., Day 1): 0%
- Percent of Rat Eyes With at Least Vacuoles Formed (0.4 mg/kg p.o., Day 2): 0%
- Percent of Rat Eyes With at Least Vacuoles Formed (0.4 mg/kg p.o., Day 3): 0%
- Percent of Rat Eyes With at Least Vacuoles Formed (0.4 mg/kg p.o., Day 4): 0%
- Percent of Rat Eyes With at Least Vacuoles Formed (0.4 mg/kg p.o., Day 5): 0%
- Percent of Rat Eyes With at Least Vacuoles Formed (0.4 mg/kg p.o., Day 6): 0%
- Percent of Rat Eyes With at Least Vacuoles Formed (0.4 mg/kg p.o., Day 7): 0%
- Percent of Rat Eyes With at Least Vacuoles Formed (0.4 mg/kg p.o., Day 8): 0%
- Percent of Rat Eyes With at Least Vacuoles Formed (0.4 mg/kg p.o., Day 9): 0%
- Percent of Rat Eyes With at Least Vacuoles Formed (0.4 mg/kg p.o., Day 10): 0%
- Percent of Rat Eyes With at Least Vacuoles Formed (0.4 mg/kg p.o., Day 12): 0%
- Percent of Rat Eyes With at Least Vacuoles Formed (0.4 mg/kg p.o., Day 14): 0%
- Percent of Rat Eyes With at Least Vacuoles Formed (1.26 mg/kg p.o., Day 0): 0%
- Percent of Rat Eyes With at Least Vacuoles Formed (1.26 mg/kg p.o., Day 1): 0%
- Percent of Rat Eyes With at Least Vacuoles Formed (1.26 mg/kg p.o., Day 2): 0%
- Percent of Rat Eyes With at Least Vacuoles Formed (1.26 mg/kg p.o., Day 3): 0%
- Percent of Rat Eyes With at Least Vacuoles Formed (1.26 mg/kg p.o., Day 4): 0%
- Percent of Rat Eyes With at Least Vacuoles Formed (1.26 mg/kg p.o., Day 5): 0%
- Percent of Rat Eyes With at Least Vacuoles Formed (1.26 mg/kg p.o., Day 6): 0.0%
- Percent of Rat Eyes With at Least Vacuoles Formed (1.26 mg/kg p.o., Day 6, listed as 2,7-difluoro): 0%
- Percent of Rat Eyes With at Least Vacuoles Formed (1.26 mg/kg p.o., Day 7): 0%
- Percent of Rat Eyes With at Least Vacuoles Formed (1.26 mg/kg p.o., Day 8): 0%
- Percent of Rat Eyes With at Least Vacuoles Formed (1.26 mg/kg p.o., Day 9): 0%
- Percent of Rat Eyes With at Least Vacuoles Formed (1.26 mg/kg p.o., Day 10): 0%
- Percent of Rat Eyes With at Least Vacuoles Formed (1.26 mg/kg p.o., Day 12): 0%
- Percent of Rat Eyes With at Least Vacuoles Formed (1.26 mg/kg p.o., Day 14): 0%
- Percent of Rat Eyes With at Least Vacuoles Formed (4.0 mg/kg p.o., Day 0): 0%
- Percent of Rat Eyes With at Least Vacuoles Formed (4.0 mg/kg p.o., Day 1): 0%
- Percent of Rat Eyes With at Least Vacuoles Formed (4.0 mg/kg p.o., Day 2): 0%
- Percent of Rat Eyes With at Least Vacuoles Formed (4.0 mg/kg p.o., Day 3): 0%
- Percent of Rat Eyes With at Least Vacuoles Formed (4.0 mg/kg p.o., Day 4): 0%
- Percent of Rat Eyes With at Least Vacuoles Formed (4.0 mg/kg p.o., Day 5): 0%
- Percent of Rat Eyes With at Least Vacuoles Formed (4.0 mg/kg p.o., Day 6): 0.0%
- Percent of Rat Eyes With at Least Vacuoles Formed (4.0 mg/kg p.o., Day 6, listed as 2,7-difluoro): 0%
- Percent of Rat Eyes With at Least Vacuoles Formed (4.0 mg/kg p.o., Day 7): 0.0%
- Percent of Rat Eyes With at Least Vacuoles Formed (4.0 mg/kg p.o., Day 7, listed as 2,7-difluoro): 0%
- Percent of Rat Eyes With at Least Vacuoles Formed (4.0 mg/kg p.o., Day 8): 0.0%
- Percent of Rat Eyes With at Least Vacuoles Formed (4.0 mg/kg p.o., Day 8, listed as 2,7-difluoro): 0%

From US4540700A, “Treatment of diabetic complications with certain spiro-imidazolidine-diones” (Alcon Laboratories, Inc., priority 1984, dated 1985)
